Like-named read-outs stand apart in the source and are kept apart here.
Target: T1, F508delCFTR (Homo sapiens, UniProt P13569, DEL508-508)
T1 construct: expressed in transfected cells; host or cells: CFBE41o- human lung-derived epithelial cells (CFBE4lo-F508delCFTR-HRP), doxycycline-inducible
Assay: Cell Surface Expression-Horse Radish Peroxidase (CSE-HRP) Assay;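 as to Maximum % activity (with co-corrector): co-corrector and positive control are both the same reference corrector at 2 µM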;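 as to Maximum % activity (without co-corrector): percent of the 2 µM on-plate positive control corrector response above DMSO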
Assay type: cell-based
Details: for Maximum % activity (with co-corrector) / Emax: maximum at any tested concentration, normalized to on-plate positive control; for Emax: read-out: Maximum % activity (without co-corrector)

[1] = test compound without co-corrector, read-out: EC50 (without co-corrector)
[2] = with co-corrector (2 μM of 3-[(2R,4R)-4-({[1-(2,2-difluoro-1,3-benzodioxol-5-yl)cyclopropyl]carbonyl}amino)-7-methoxy-3,4-dihydro-2H-chromen-2-yl]benzoic acid), read-out: EC50 (with co-corrector)
[3] = test compound without co-corrector
[4] = with co-corrector (2 μM of 3-[(2R,4R)-4-({[1-(2,2-difluoro-1,3-benzodioxol-5-yl)cyclopropyl]carbonyl}amino)-7-methoxy-3,4-dihydro-2H-chromen-2-yl]benzoic acid)
[5] = CSE-HRP, test compound without co-corrector, read-out: EC50 (without co-corrector)
[6] = CSE-HRP, with co-corrector (2 μM of 3-[(2R,4R)-4-({[1-(2,2-difluoro-1,3-benzodioxol-5-yl)cyclopropyl]carbonyl}amino)-7-methoxy-3,4-dihydro-2H-chromen-2-yl]benzoic acid), read-out: EC50 (with co-corrector)
[7] = CSE-HRP, with co-corrector (2 μM)

T1 sequence (P13569 with tags, fused parts or gaps DEL508-508): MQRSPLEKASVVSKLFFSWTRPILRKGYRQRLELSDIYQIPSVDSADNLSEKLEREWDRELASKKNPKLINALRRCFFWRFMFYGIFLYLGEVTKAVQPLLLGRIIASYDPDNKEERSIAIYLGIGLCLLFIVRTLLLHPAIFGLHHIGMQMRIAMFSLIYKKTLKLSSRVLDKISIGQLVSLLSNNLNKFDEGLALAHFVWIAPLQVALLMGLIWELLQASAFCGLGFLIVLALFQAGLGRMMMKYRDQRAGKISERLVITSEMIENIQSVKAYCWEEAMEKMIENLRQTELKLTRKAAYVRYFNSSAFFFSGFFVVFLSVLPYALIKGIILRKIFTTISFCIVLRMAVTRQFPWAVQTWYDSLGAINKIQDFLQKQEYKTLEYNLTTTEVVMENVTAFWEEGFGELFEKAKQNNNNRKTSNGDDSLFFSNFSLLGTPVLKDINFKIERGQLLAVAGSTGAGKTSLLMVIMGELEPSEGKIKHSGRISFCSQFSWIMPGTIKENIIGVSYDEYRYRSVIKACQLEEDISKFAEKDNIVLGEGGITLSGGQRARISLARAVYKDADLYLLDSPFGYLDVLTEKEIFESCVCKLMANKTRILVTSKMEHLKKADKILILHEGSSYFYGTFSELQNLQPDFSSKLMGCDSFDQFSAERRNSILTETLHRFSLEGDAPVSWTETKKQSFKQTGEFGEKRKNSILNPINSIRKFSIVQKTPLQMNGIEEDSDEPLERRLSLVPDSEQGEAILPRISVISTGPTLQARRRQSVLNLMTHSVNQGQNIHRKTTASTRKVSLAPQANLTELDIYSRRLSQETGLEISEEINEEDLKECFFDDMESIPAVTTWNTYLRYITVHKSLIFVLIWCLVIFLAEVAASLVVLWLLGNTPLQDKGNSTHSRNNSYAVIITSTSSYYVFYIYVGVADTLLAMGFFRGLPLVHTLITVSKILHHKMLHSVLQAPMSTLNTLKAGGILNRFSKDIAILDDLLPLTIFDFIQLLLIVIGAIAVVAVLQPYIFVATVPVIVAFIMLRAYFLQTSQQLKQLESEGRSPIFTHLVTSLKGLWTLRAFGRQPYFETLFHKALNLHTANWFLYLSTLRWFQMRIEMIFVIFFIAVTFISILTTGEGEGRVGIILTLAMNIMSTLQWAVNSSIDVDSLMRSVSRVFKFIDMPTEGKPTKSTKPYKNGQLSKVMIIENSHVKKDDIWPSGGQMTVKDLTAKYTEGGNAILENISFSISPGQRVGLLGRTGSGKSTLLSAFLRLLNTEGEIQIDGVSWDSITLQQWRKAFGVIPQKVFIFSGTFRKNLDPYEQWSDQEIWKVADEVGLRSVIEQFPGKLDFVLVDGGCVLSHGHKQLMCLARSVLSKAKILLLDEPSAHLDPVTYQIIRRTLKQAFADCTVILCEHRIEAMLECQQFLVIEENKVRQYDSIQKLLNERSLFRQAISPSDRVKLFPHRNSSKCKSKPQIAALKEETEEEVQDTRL

Row | EC50 [1] [nM] | EC50 [2] [nM] | Maximum % activity (with co-corrector) (with co-corrector (2 μM)) | Emax (without co-corrector) [%] | Emax [3] [%] | Maximum % activity (with co-corrector) [4] | EC50 [5] [nM] | EC50 [6] [nM] | Maximum % activity (with co-corrector) [7] | Emax (CSE-HRP, without co-corrector) [%] | SMILES
1 | 1000 to 10000 | 1000 to 10000 | +++ (≥350) | > 200 | – | – | – | – | – | – | COc1ncc(C(F)(F)F)cc1CN[C@H]1[C@H](C(C)(C)C)[C@@H](C(=O)O)N(C(=O)OC(C)C)[C@H]1c1ccccc1C(C)C [Example 77, (2S,3S,4S,5S)-3-tert-butyl-4-({[2-methoxy-5-(trifluoromethyl)pyridin-3-yl]methyl}amino)-1-{[(propan-2-yl)oxy]carbonyl}-5-[2-(propan-2-yl)phenyl]pyrrolidine-2-carboxylic acid]
2 | > 10000 | 1000 to 10000 | – | – | < 100 | ++ (≥150 and <350) | – | – | – | – | COCCS(=O)(=O)NC(=O)[C@H]1[C@H](C(C)(C)C)[C@@H](Nc2cc(C(F)(F)F)cc(C)n2)[C@@H](c2ccccc2)N1C(=O)C1CCCCC1 (racemic) [Example III-49, rac-(2R,3R,4R,5R)-3-(tert-butyl)-1-(cyclohexanecarbonyl)-N-((2-methoxyethyl)sulfonyl)-4-((6-methyl-4-(trifluoromethyl)pyridin-2-yl)amino)-5-phenylpyrrolidine-2-carboxamide]
3 | – | – | – | – | – | – | < 1000 | 1000 to 10000 | +++ (≥350) | < 100 | CC(C)(C)[C@H]1[C@H](NCc2ccc(Cl)cc2Cl)[C@H](c2ccccc2)N(C(=O)C2CCCCC2)[C@@H]1C(=O)O [II-113]
4 | – | – | – | – | – | – | 1000 to 10000 | 1000 to 10000 | +++ (≥350) | 100 to 200 | COc1ccc(C(F)(F)F)cc1CN[C@H]1[C@H](C(C)(C)C)[C@@H](C(=O)O)N(C(=O)C2CCCO2)[C@H]1c1ccccc1 (mixture of isomers) [II-59]
5 | – | – | – | – | – | – | 1000 to 10000 | 1000 to 10000 | +++ (≥350) | 100 to 200 | COc1ncc(C2CC2)cc1CN[C@H]1[C@H](C(C)(C)C)[C@@H](C(=O)O)N(C(=O)C2CCCCC2)[C@H]1c1ccccc1 [II-259]
6 | 1000 to 10000 | 1000 to 10000 | ++ (≥150 and <350) | < 100 | – | – | – | – | – | – | CC(C)c1cc(C(F)(F)F)cc(N[C@H]2[C@H](C(C)(C)C)[C@@H](C(=O)O)N(C(=O)C3CCCCC3)[C@H]2c2ccccc2)n1 [Example I-54]
7 | – | – | – | – | – | – | 1000 to 10000 | < 1000 | +++ (≥350) | > 200 | COc1nc2ccccc2cc1CN[C@H]1[C@H](C(C)(C)C)[C@@H](C(=O)O)N(C(=O)OC(C)C)[C@H]1c1ccccc1C(C)C [Example I-250]
8 | – | – | – | – | – | – | 1000 to 10000 | 1000 to 10000 | ++ (≥150 and <350) | < 100 | CC(C)(C)[C@H]1[C@H](NCc2coc3ccccc23)[C@H](c2ccccc2)N(C(=O)C2CCCCC2)[C@@H]1C(=O)O [II-100]
9 | 1000 to 10000 | 1000 to 10000 | – | – | < 100 | ++ (≥150 and <350) | – | – | – | – | COc1ccc(C(F)(F)F)cc1CN[C@@H]1[C@H](C(C)(C)C)[C@@H](C(=O)O)N(C(=O)OC(C)C)[C@H]1c1ccccc1 [II-556]
10 | > 10000 | > 10000 | + (<150) | < 100 | – | – | – | – | – | – | COc1ccc(-c2ccnnc2)cc1CN[C@H]1[C@H](C(C)(C)C)[C@@H](C(=O)O)N(C(=O)C2CCCCC2)[C@H]1c1ccccc1 [Example I-125]
11 | – | – | – | – | – | – | 1000 to 10000 | < 1000 | +++ (≥350) | > 200 | COc1ccc(C(C)(C)C)cc1CN[C@H]1[C@H](C(C)(C)C)[C@@H](C(=O)O)N(C(=O)Cc2cc(C)sc2C)[C@H]1c1ccccc1 [II-208]
12 | – | – | – | – | – | – | 1000 to 10000 | 1000 to 10000 | +++ (≥350) | > 200 | COc1ccc(C(C)(C)C)cc1CN[C@H]1[C@H](C(C)(C)C)[C@@H](C(=O)O)N(C(=O)C2CC(C)CCO2)[C@H]1c1ccccc1 (stereo partly drawn) [II-174]
13 | – | – | – | – | – | – | 1000 to 10000 | < 1000 | +++ (≥350) | > 200 | COc1ccc(C(C)(C)C)cc1CN[C@H]1[C@H](C(C)(C)C)[C@@H](C(=O)O)N(C(=O)Cc2ncc(Cl)cc2F)[C@H]1c1ccccc1 [II-236]
14 | – | – | – | – | – | – | 1000 to 10000 | 1000 to 10000 | +++ (≥350) | > 200 | COc1ncc(C(F)(F)F)cc1CN[C@H]1[C@H](C(C)(C)C)[C@@H](C(=O)O)N(C(=O)[C@@H]2CCCO2)[C@H]1c1ccccc1C [Example I-262]
15 | 1000 to 10000 | 1000 to 10000 | +++ (≥350) | > 200 | – | – | – | – | – | – | COc1cc2c(cc1CN[C@H]1[C@H](C(C)(C)C)[C@@H](C(=O)O)N(C(=O)OC(C)C)[C@H]1c1ccccc1C)CCC2 [Example 90, (2S,3S,4S,5S)-3-tert-butyl-4-{[(6-methoxy-2,3-dihydro-1H-inden-5-yl)methyl]amino}-5-(2-methylphenyl)-1-{[(propan-2-yl)oxy]carbonyl}pyrrolidine-2-carboxylic acid]
16 | 1000 to 10000 | 1000 to 10000 | – | – | 100 to 200 | +++ (≥350) | – | – | – | – | COc1ccc(C(C)(C)C)cc1CN[C@H]1[C@H](C(C)(C)C)[C@@H](C(=O)O)N(C(=O)C2CCC(F)(F)CC2)[C@H]1c1ccccc1 [II-377]
17 | 1000 to 10000 | 1000 to 10000 | +++ (≥350) | – | 100 to 200 | – | – | – | – | – | COc1cc(C(F)(F)F)ccc1CN[C@@H]1[C@@H](C(C)(C)C)[C@H](C(=O)O)N(C(=O)OC2CCC2)[C@@H]1c1ccccc1 (racemic) [III-114]
18 | 1000 to 10000 | < 1000 | – | – | > 200 | +++ (≥350) | – | – | – | – | COc1ccc(-c2ccccc2)cc1CN[C@H]1[C@H](C(C)(C)C)[C@@H](C(=O)O)N(C(=O)[C@@H]2CCCCO2)[C@H]1c1cccnc1N(C)C [II-450]
19 | > 10000 | > 10000 | – | – | < 100 | + (<150) | – | – | – | – | CO[C@@H](C(=O)N1[C@H](c2cccnc2N(C)C)[C@H](Nc2cc(C(F)(F)F)cc(C)n2)[C@@H](C(C)(C)C)[C@@H]1C(=O)O)c1ccccc1 (racemic) [III-89]
20 | 1000 to 10000 | 1000 to 10000 | – | – | 100 to 200 | +++ (≥350) | – | – | – | – | COc1ccc(C(C)(C)C)cc1CN[C@H]1[C@H](C(C)(C)C)[C@@H](C(=O)O)N(C(=O)c2c(C)nn3c2CCCC3)[C@H]1c1ccccc1 [II-363]
21 | < 1000 | < 1000 | – | – | > 200 | +++ (≥350) | – | – | – | – | COc1ncc(-c2ccccc2C)cc1CN[C@H]1[C@H](C(C)(C)C)[C@@H](C(=O)O)N(C(=O)C2CCCCC2)[C@H]1c1ccccc1 [II-342]
22 | – | – | – | – | – | – | 1000 to 10000 | < 1000 | +++ (≥350) | > 200 | COc1ncc(C(F)(F)F)cc1CN[C@H]1[C@H](C(C)(C)C)[C@@H](C(=O)O)N(C(=O)C2CCC2)[C@H]1c1ccccc1C(C)C [Example I-273]
23 | 1000 to 10000 | 1000 to 10000 | ++ (≥150 and <350) | < 100 | – | – | – | – | – | – | Cc1cc(C(F)(F)F)cc(N[C@@H]2[C@@H](C3CC3)[C@H](C(=O)O)N(C(=O)C3CCCCC3)[C@@H]2c2ccccc2)n1 (racemic) [Example I-7]
24 | – | – | – | – | – | – | 1000 to 10000 | 1000 to 10000 | +++ (≥350) | 100 to 200 | COc1ccc(C(C)(C)C)cc1CN[C@H]1[C@H](C(C)(C)C)[C@@H](C(=O)O)N(C(=O)C2CCC(C#N)CC2)[C@H]1c1ccccc1 (stereo partly drawn) [II-175]
25 | 1000 to 10000 | < 1000 | – | – | 100 to 200 | +++ (≥350) | – | – | – | – | COc1ncc(C(F)(F)F)cc1CN[C@H]1[C@H](C(C)(C)C)[C@@H](C(=O)O)N(C(=O)[C@H](C)OC)[C@H]1c1ccccc1C(C)C [II-590]
26 | 1000 to 10000 | 1000 to 10000 | +++ (≥350) | < 100 | – | – | – | – | – | – | COc1ccc(C2(C(F)(F)F)CC2)nc1CN[C@H]1[C@H](C(C)(C)C)[C@@H](C(=O)O)N(C(=O)C2CCCCC2)[C@H]1c1ccccc1 [Example I-170]
27 | 1000 to 10000 | < 1000 | – | – | > 200 | +++ (≥350) | – | – | – | – | COc1ccc(C(F)(F)F)cc1CN[C@H]1[C@H](C(C)(C)C)[C@@H](C(=O)O)N(C(=O)OC(C)C)[C@H]1c1ccccc1C [II-581]
28 | 1000 to 10000 | 1000 to 10000 | ++ (≥150 and <350) | < 100 | – | – | – | – | – | – | COc1ccc(C(C)(C)C)cc1CN[C@H]1[C@H](C(C)(C)C)[C@@H](C(=O)O)N(C(=O)Cc2c[nH]cn2)[C@H]1c1ccccc1 [Example I-98]
29 | 1000 to 10000 | 1000 to 10000 | – | – | 100 to 200 | +++ (≥350) | – | – | – | – | COc1ccc(C(F)(F)F)cc1CN[C@H]1[C@H](C(C)(C)OC)[C@@H](C(=O)O)N(C(=O)C2CCCCC2)[C@H]1c1cccnc1OC [II-436]
30 | – | – | – | – | – | – | 1000 to 10000 | 1000 to 10000 | +++ (≥350) | < 100 | COc1cc(C(F)(F)F)ccc1CN[C@H]1[C@H](C(C)(C)C)[C@@H](C(=O)O)N(C(=O)c2ccccc2)[C@H]1c1ccccc1 [II-152]

From US20180099931A1 (AbbVie S.à.r.l., priority 2016, published 2018)
